Tests used:
[1] = Mucous barrier model: ability of molecules to cross a barrier (permeable support, “SUBSTRATE” or Mus^3SUB); type: in vitro ADME; details: interactive barrier, mucin in the “SUBSTRATE” (Mus^3SUB); FIG. 4
Procedure: “SUBSTRATE” and Mus^3SUB with the features referred to in Example 2 were tested for the ability thereof to mimic the mucous barrier.
The charts in FIG. 4 show the ability of said molecules to cross a barrier, where the barrier consists of a permeable support, “SUBSTRATE” or Mus^3SUB.

[2] = cited from earlier work

| SMILES | transition of the drug across the barrier [1] | pKa [2] | log D7.4 ([2]; pH 7.4) |
| --- | --- | --- | --- |
| CC1=C(C(=O)O)N2C(=O)[C@@H](NC(=O)[C@H](N)c3ccccc3)[C@H]2SC1 [Cefalexin] | very quick | – | – |
| COc1cccc2c1C(=O)c1c(O)c3c(c(O)c1C2=O)C[C@@](O)(C(=O)CO)C[C@@H]3O[C@H]1C[C@H](N)[C@@H](O)[C@H](C)O1 [Epirubicin] | slowed | 8.01 | 0.03 |

From patent publication US20220073857A1, “THREE-DIMENSIONAL SUBSTRATE FOR MICROBIAL CULTURES” (POLITECNICO DI MILANO, priority 2018, published 2022)
